Data from US7713994B2 (Wyeth LLC, priority 2005, dated 2010).
Like-named read-outs stand apart in the source and are kept apart here.

What was measured:
cyclin D1/cdk 4 enzyme = molecular target: T1, cyclin D1/cdk 4 enzyme (Homo sapiens, UniProt P11802); test: CDK4 ELISA kinase assay (phospho-Rb ser 795 detection); type: biochemical
T1 construct: made in house; host or cells: Sf9 insect cells, recombinant baculovirus
How it was run: (§1)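 Sf9-derived cyclin/CDK, 200 μM ATP, immobilized GST-Rb; 30° C/1 h. Detection: phospho-Ser795 Ab, HRP, TMB, OD450.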

cyclin E/CDK2 enzyme = molecular target: T2, cyclin E/CDK2 enzyme (Homo sapiens, UniProt P24941); test: CDK2 ELISA kinase assay (phospho-Rb ser 795 detection); type: biochemical
T2 construct: made in house; host or cells: Sf9 insect cells, recombinant baculovirus
How it was run: as §1

cyclin B/CDK1 enzyme = molecular target: T3, cyclin B/CDK1 enzyme (Homo sapiens, UniProt P06493); test: CDK1 ELISA kinase assay (phospho-Rb ser 795 detection); type: biochemical
T3 construct: purchased New England BioLabs; host or cells: Sf9 insect cells, recombinant baculovirus
How it was run: as §1

BT474 = test: Cytotoxicity assay (SRB), BT474; type: cell-based
How it was run: (§2)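 Seeding: BT474 12000, HCT-116 4000, LoVo 6000, MCF-7 6000 cells/well; overnight attachment, 37 °C, 7% CO2. Drug exposure 3 d (BT474 6 d), RPMI 1640 + 5% FBS. Readout: TCA fix, 0.4% SRB, Tris solubilisation, A540.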

HCT-116 = test: Cytotoxicity assay (SRB), HCT-116; type: cell-based; conditions: Homo sapiens, HCT-116, 72 h, HCT116 cells, SRB, read-out: In Vitro Cellular Activity IC50 HCT116
How it was run: as §2

LoVo = test: Cytotoxicity assay (SRB), LoVo; type: cell-based; conditions: Homo sapiens, LoVo, 72 h, LoVo cells, SRB, read-out: In Vitro Cellular Activity IC50 LOVO
How it was run: as §2

MCF-7 = test: Cytotoxicity assay (SRB), MCF-7; type: cell-based; conditions: Homo sapiens, MCF7, 72 h, MCF-7 cells, SRB, read-out: In Vitro Cellular Activity IC50 MCF-7
How it was run: as §2

[1] = In Vitro Enzyme Assays, 200 μM ATP, read-out: CDK4 IC50
[2] = In Vitro Enzyme Assays, read-out: CDK2 IC50
[3] = In Vitro Enzyme Assays, read-out: CDK1 IC50
[4] = Homo sapiens, BT-474, 144 h, BT474 cells, SRB, 6 days; read-out: In Vitro Cellular Activity IC50 BT474
[5] = Homo sapiens, BT-474, 144 h, BT474 cells, 6 days, SRB; read-out: In Vitro Cellular Activity IC50 BT474
[6] = In Vitro Enzyme Assay, cyclin D1/cdk 4, read-out: CDK4 IC50
[7] = In Vitro Enzyme Assay, cyclin E/CDK2, read-out: CDK2 IC50
[8] = In Vitro Enzyme Assay, cyclin B/CDK1, read-out: CDK1 IC50

T1 sequence (P11802 whole entry, species assumed): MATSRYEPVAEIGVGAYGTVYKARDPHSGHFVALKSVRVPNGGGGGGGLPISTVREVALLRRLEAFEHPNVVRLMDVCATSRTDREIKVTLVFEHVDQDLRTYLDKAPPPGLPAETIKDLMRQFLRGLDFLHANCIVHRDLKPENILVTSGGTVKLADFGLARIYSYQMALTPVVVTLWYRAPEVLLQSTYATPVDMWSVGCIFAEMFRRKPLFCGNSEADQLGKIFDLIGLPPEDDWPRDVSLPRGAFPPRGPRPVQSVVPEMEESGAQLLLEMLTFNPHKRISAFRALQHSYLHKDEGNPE
T1 sequence (P24385 whole entry partner, species assumed): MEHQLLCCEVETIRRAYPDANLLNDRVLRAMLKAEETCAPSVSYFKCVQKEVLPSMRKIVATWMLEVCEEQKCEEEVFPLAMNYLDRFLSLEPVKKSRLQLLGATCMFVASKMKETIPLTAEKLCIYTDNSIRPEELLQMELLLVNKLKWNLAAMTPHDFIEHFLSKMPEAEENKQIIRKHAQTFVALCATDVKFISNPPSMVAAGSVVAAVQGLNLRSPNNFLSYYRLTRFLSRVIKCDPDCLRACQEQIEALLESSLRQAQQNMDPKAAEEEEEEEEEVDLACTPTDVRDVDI
T3 sequence (P06493 whole entry): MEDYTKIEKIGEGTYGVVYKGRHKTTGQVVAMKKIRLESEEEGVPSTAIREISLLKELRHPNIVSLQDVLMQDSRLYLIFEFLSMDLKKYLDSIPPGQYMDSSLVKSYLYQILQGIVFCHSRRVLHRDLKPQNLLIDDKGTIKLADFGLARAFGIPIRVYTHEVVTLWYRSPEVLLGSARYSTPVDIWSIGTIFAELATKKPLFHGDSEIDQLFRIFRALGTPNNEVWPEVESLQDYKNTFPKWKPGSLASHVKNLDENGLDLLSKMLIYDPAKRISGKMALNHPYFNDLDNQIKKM
T3 sequence (P14635 whole entry partner): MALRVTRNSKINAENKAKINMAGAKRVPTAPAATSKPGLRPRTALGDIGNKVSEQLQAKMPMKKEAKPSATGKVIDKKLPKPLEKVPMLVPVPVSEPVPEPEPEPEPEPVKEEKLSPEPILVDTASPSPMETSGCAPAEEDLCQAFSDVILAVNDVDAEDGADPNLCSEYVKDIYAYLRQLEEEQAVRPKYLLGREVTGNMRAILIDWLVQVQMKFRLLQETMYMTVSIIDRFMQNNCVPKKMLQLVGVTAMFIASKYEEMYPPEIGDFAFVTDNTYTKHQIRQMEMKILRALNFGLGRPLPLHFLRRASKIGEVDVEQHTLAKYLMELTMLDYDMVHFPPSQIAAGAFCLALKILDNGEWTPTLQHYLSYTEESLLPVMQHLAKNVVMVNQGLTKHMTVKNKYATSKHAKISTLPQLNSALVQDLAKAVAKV

Structure (SMILES) | IC50 (cyclin D1/cdk 4 enzyme; [1]) | IC50 (cyclin E/CDK2 enzyme; [2]) | IC50 (cyclin B/CDK1 enzyme; [3]) | IC50 (BT474; [4]) | IC50 (HCT-116; three days) | IC50 (LoVo; three days) | IC50 (MCF-7; three days) | IC50 (BT474; [5]) | IC50 (HCT-116; 3 days) | IC50 (LoVo; 3 days) | IC50 (MCF-7; 3 days) | IC50 (cyclin D1/cdk 4 enzyme; [6]) | IC50 (cyclin E/CDK2 enzyme; [7]) | IC50 (cyclin B/CDK1 enzyme; [8])
C/C=C/C(=O)Nc1ccc(CN/C=C2\C(=O)NC(=O)c3ccc(I)cc32)cc1OC(=O)/C=C/C [Example 343, 2-[(2E)-But-2-enoylamino]-5-({[(Z)-(6-iodo-1,3-dioxo-2,3-dihydroisoquinolin-4(1H)-ylidene)methyl]amino}methyl)phenyl (2E)-but-2-enoate] | 7.8 µM | 22.6 µM | > 50 µM | 7.7 µM | 12 µM | 9.8 µM | 14 µM |  |  |  |  |  |  | 
CCN1CCN(c2ccc(N/C=C3\C(=O)NC(=O)c4ccc(I)cc43)cn2)CC1 [Example 414, (4Z)-4-({[6-(4-Ethylpiperazin-1-yl)pyridin-3-yl]amino}methylene)-6-iodoisoquinoline-1,3(2H,4H)-dione] | 0.5 µM | > 50 µM | > 50 µM |  |  |  |  | 6.2 µM | 2.4 µM | 6.2 µM | 6 µM |  |  | 
COc1ccc(CNC=C2C(=O)NC(=O)c3ccc(-c4ccc5[nH]ccc5c4)cc32)cc1O [Example 835, 4-[(3-Hydroxy-4-methoxy-benzylamino)-methylene]-6-(1H-indol-5-yl)-4H-isoquinoline-1,3-dione] |  |  |  |  |  |  |  | 11.7 µM | 10 µM | 11.3 µM | 12.6 µM | 0.04 µM | 40.6 µM | 35.5 µM
O=C1NC(=O)c2ccc(-c3ccco3)cc2C1=CNc1ccc(CN2CCCC2)cc1 [Example 169, 6-Furan-2-yl-4-[(4-pyrrolidin-1-ylmethyl-phenylamino)-methylene]-4H-isoquinoline-1,3-dione] | 0.2 µM | > 50 µM | > 50 µM | 1.8 µM | 2.6 µM | 5.2 µM | 2.5 µM |  |  |  |  |  |  | 
COc1ccccc1-c1ccc2c(c1)C(=CNCc1ccc(O)c(O)c1)C(=O)NC2=O [Example 766, 4-[(3,4-Dihydroxy-benzylamino)-methylene]-6-(2-methoxy-phenyl)-4H-isoquinoline-1,3-dione] |  |  |  |  |  |  |  | 33.9 µM | 21.6 µM | 32.3 µM | 22.1 µM | 1.29 µM | 14.4 µM | 43.4 µM
CN(C)CCSc1ccc(N/C=C2\C(=O)NC(=O)c3ccc(Br)cc32)cc1 [Example 229, (4Z)-6-Bromo-4-{[(4-{[2-(dimethylamino)ethyl]thio}phenyl)amino]methylene}isoquinoline-1,3(2H,4H)-dione] | 0.24 µM | > 50 µM | > 50 µM | 4 µM | 3.6 µM | 8.5 µM | 4.6 µM |  |  |  |  |  |  | 
COc1c(O)cc(CN/C=C2\C(=O)NC(=O)c3ccc(Br)cc32)cc1O [Example 210, (4Z)-6-Bromo-4-{[(3,5-dihydroxy-4-methoxybenzyl)amino]methylene}isoquinoline-1,3(2H,4H)-dione] | 0.008 µM | 2.1 µM | 18.9 µM | 13 µM | 10 µM | 10 µM | 6.6 µM |  |  |  |  |  |  | 
CC(C)(O)[C@H]1CCCN1Cc1ccc(N/C=C2\C(=O)NC(=O)c3ccc(I)cc32)cc1 [Example 369, D-4-({4-[2-(1-Hydroxy-1-methyl-ethyl)-pyrrolidin-1-ylmethyl]-phenylamino}-methylene)-6-iodo-4H-isoquinoline-1,3-dione] | 0.46 µM | > 50 µM | > 50 µM | 1.2 µM | 4.3 µM | 5 µM | 1.7 µM |  |  |  |  |  |  | 
O=C1NC(=O)c2ccc(-c3ccc(CO)cc3)cc2C1=CNc1ccc(CN2CCCC2)cc1 [Example 840, 6-(4-Hydroxymethyl-phenyl)-4-[(4-pyrrolidin-1-ylmethyl-phenylamino)-methylene]-4H-isoquinoline-1,3-dione] |  |  |  |  |  |  |  | > 50 µM | 19 µM | > 50 µM | 40 µM | 3 µM | 31 µM | > 50 µM
COc1ccc(-c2ccc3c(c2)C(=CNCc2ccc(OC)c(O)c2)C(=O)NC3=O)cc1 [Example 833, 4-[(3-Hydroxy-4-methoxy-benzylamino)-methylene]-6-(4-methoxy-phenyl)-4H-isoquinoline-1,3-dione] |  |  |  |  |  |  |  | 25.1 µM | 16.9 µM | 19.2 µM | 26.5 µM | 0.01 µM | 15.1 µM | > 50 µM
O=C1NC(=O)c2ccc(I)cc2/C1=C/NCc1ccc(-c2ccc(F)cc2)c(O)c1 [Example 500, 4-{[(4′-Fluoro-2-hydroxy-biphenyl-4-ylmethyl)-amino]-methylene}-6-iodo-4H-isoquinoline-1,3-dione] |  |  |  |  |  |  |  | 2.3 µM | 1.9 µM | 1.8 µM | 3.8 µM | 0.14 µM | 15.1 µM | 43.4 µM
O=C1NC(=O)c2ccc(-c3ccc(Cl)cc3)cc2C1=CNCc1ccc(O)c(O)c1 [Example 778, 6-(4-Chloro-phenyl)-4-[(3,4-dihydroxy-benzylamino)-methylene]-4H-isoquinoline-1,3-dione] |  |  |  |  |  |  |  | 27.3 µM | 11.9 µM | 9.6 µM | 10.3 µM | 0.12 µM | 5.6 µM | 27.7 µM
O=C1NC(=O)c2ccc(I)cc2/C1=C/NCc1cc(O)ccc1-c1ccco1 [Example 499, 4-[(2-Furan-2-yl-5-hydroxy-benzylamino)-methylene]-6-iodo-4H-isoquinoline-1,3-dione] |  |  |  |  |  |  |  | 9.8 µM | 4.8 µM | 8.4 µM | 9.1 µM | 5.4 µM | 41.5 µM | > 50 µM
CN1CCN(c2ccc(NC=C3C(=O)NC(=O)c4ccc(C=Cc5ccccn5)cc43)cc2)CC1 [Example 675, 4-{[4-(4-Methyl-piperazin-1-yl)-phenylamino]-methylene}-6-(2-pyridin-2-yl-vinyl)-4H-isoquinoline-1,3-dione] |  |  |  |  |  |  |  | 7.7 µM | 2.3 µM | 6.8 µM | 7.2 µM | 1.77 µM | > 50 µM | > 50 µM
COCC1CCN(c2ccc(N/C=C3\C(=O)NC(=O)c4ccc(I)cc43)cc2)CC1 [Example 435, (4Z)-6-Iodo-4-[({4-[4-(methoxymethyl)piperidin-1-yl]phenyl}amino)methylene]isoquinoline-1,3(2H,4H)-dione] | 4.6 µM | 38.8 µM | > 50 µM |  |  |  |  | 8.5 µM | 3.2 µM | 5.2 µM | 26 µM |  |  | 
O=C1NC(=O)c2ccc(-c3ccc(C(F)(F)F)cc3)cc2C1=CNCc1ccc(O)c(O)c1 [Example 772, 4-[(3,4-Dihydroxy-benzylamino)-methylene]-6-(4-trifluoromethyl-phenyl)-4H-isoquinoline-1,3-dione] |  |  |  |  |  |  |  | 28.1 µM | 15.6 µM | 15.4 µM | 12.2 µM | 0.51 µM | 10.7 µM | 40.6 µM
O=C1NC(=O)c2ccc(I)cc2/C1=C/Nc1ccc(CN2CCC[C@@H]2CO)cc1 [Example 368, D-4-{[4-(2-Hydroxymethyl-pyrrolidin-1-ylmethyl)-phenylamino]-methylene}-6-iodo-4H-isoquinoline-1,3-dione] | 0.51 µM | 30.3 µM | > 50 µM | 0.5 µM | 3.2 µM | 3.7 µM | 1.8 µM |  |  |  |  |  |  | 
O=C1NC(=O)c2ccc(-c3ccc(OC(F)(F)F)cc3)cc2C1=CNCc1ccc(O)c(O)c1 [Example 818, 4-[(3,4-Dihydroxy-benzylamino)-methylene]-6-(4-trifluoromethoxy-phenyl)-4H-isoquinoline-1,3-dione] |  |  |  |  |  |  |  | 22.9 µM | 11.7 µM | 7.4 µM | 10.5 µM | 0.79 µM | 30.3 µM | 36.3 µM
C=CCN1CCCC1c1ccc(N/C=C2\C(=O)NC(=O)c3ccc(I)cc32)cc1 (stereo not shown) [Example 419, 4-{[4-(1-Allyl-pyrrolidin-2-yl)-phenylamino]-methylene}-6-iodo-4H-isoquinoline-1,3-dione] | 0.77 µM | 31 µM | > 50 µM |  |  |  |  | 12.9 µM | 7 µM | 12 µM | 7.6 µM |  |  | 
